Assay results taken from ChEMBL document CHEMBL1143458, “An efficient synthesis of argifin: a natural product chitinase inhibitor with chemotherapeutic potential” (Bioorg Med Chem Lett, 2005).

Columns and labels:
[1] = test system: CNC(=O)NC(=N)NCCC[C@@H]1NC(=O)[C@@H](C)NC(=O)C[C@@H](C(=O)O)NC(=O)C[C@@H](C(=O)O)NC(=O)[C@H](Cc2ccccc2)N(C)C1=O; test: Michaelis constant for compound binding to Chitinase B1; conditions: Aspergillus fumigatus
[2] = Maximum rate of metabolism of compound; type: ADME; conditions: aspergillus fumigatus
Endochitinase B1 = Endochitinase B1 (Aspergillus fumigatus, UniProt Q873X9); test: Inhibitory activity against Chitinase B1 (AfChiB1) using fuorometric assay with 4-methylumbelliferyl-b-D-N,N0-diacetylchitobiose as substrate

Molecule	Km [1] [µM]	Vmax [2] [nM/s]	Ki (Endochitinase B1) [nM]
Endochitinase B1 (Aspergillus fumigatus) (from UniProt Q873X9)	10.4	–	–
CNC(=O)NC(=N)NCCC[C@@H]1NC(=O)[C@@H](C)NC(=O)C[C@@H](C(=O)O)NC(=O)C[C@@H](C(=O)O)NC(=O)[C@H](Cc2ccccc2)N(C)C1=O [ARGIFIN]	–	2.7	17
